≈ marks a conversion by molar mass, not a printed value.
Key:
Staphylococcus aureus = assay: Antibacterial activity against Staphylococcus aureus ATCC 12598 by broth dilution method; format: functional
Pseudomonas aeruginosa = assay: Antibacterial activity against Pseudomonas aeruginosa ATCC 27853 by broth dilution method; format: functional
[1] = Cytotoxicity against human HeLa cells assessed as decrease in cell viability after 72 hrs by MTS assay; format: functional, cell-based
[2] = Cytotoxicity against HEK293T cells assessed as decrease in cell viability after 72 hrs by MTS assay; format: toxicity, cell-based, HEK-293T; details: human
Escherichia coli = assay: Antibacterial activity against Escherichia coli ATCC 25922 by broth dilution method; format: functional
[3] = Cytotoxicity against human HepG2 cells assessed as decrease in cell viability after 72 hrs by MTS assay; format: functional, cell-based; details: HepG2, 72 h
[4] = Cytotoxicity against human A549 cells assessed as decrease in cell viability after 72 hrs by MTS assay; format: functional, cell-based; details: A549, 72 h
[5] = Cytotoxicity against human MCF7 cells assessed as decrease in cell viability after 72 hrs by MTS assay; format: functional, cell-based; details: MCF7, 72 h
Bacillus spizizenii = assay: Antibacterial activity against Bacillus subtilis ATCC 6633 by broth dilution method; format: functional
Salmonella enteritidis = assay: Antibacterial activity against Salmonella enteritidis ATCC 13076 by broth dilution method; format: functional, Salmonella enterica subsp. enterica serovar Enteritidis; details: Salmonella enterica

| SMILES | MIC (Staphylococcus aureus) | MIC (Pseudomonas aeruginosa) | MIC (Escherichia coli) | MIC (Bacillus spizizenii) | MIC (Salmonella enteritidis) | IC50 [1] | IC50 at 72 h [2] | IC50 [3] | IC50 [4] | IC50 [5] |
| --- | --- | --- | --- | --- | --- | --- | --- | --- | --- | --- |
| O=C1CC[C@]23Oc4ccc(O)c5c4[C@](Oc4cccc1c42)(O3)[C@@H]1O[C@@H]1C5=O | 1.6 µg/mL (≈ 4.39 µM) | > 50 µg/mL | > 50 µg/mL | 13 µg/mL (≈ 35.7 µM) | > 50 µg/mL | 19 µM | 12 µM | 4.4 µM | 9.4 µM | 2.6 µM |
| Oc1ccc2c3c1[C@@H](O)[C@H]1O[C@H]1[C@]31Oc3cccc4c3[C@](C=C[C@@H]4O)(O2)O1 | 6.2 µg/mL (≈ 16.9 µM) | > 50 µg/mL | > 50 µg/mL | 13 µg/mL (≈ 35.5 µM) | > 50 µg/mL | > 100 µM | > 100 µM | > 100 µM | 40.2 µM | 71 µM |
| O=C1C=C[C@]23Oc4ccc(O)c5c4[C@](Oc4cccc1c42)(O3)[C@@H]1O[C@@H]1C5=O | 13 µg/mL (≈ 35.9 µM) | > 50 µg/mL | > 50 µg/mL | 50 µg/mL (≈ 138 µM) | > 50 µg/mL | 14 µM | 17 µM | 8.5 µM | 6.2 µM | 4.2 µM |
| CO[C@@H]1CC(=O)c2cccc3c2[C@@]12Oc1ccc(O)c4c1[C@](O3)(O2)[C@H](O)CC4=O | – | – | – | – | – | > 100 µM | 83 µM | 83 µM | 36.1 µM | 13 µM |
| O=C1CC[C@]23Oc4ccc(O)c5c4[C@](Oc4cccc1c42)(O3)[C@@H]1O[C@@H]1[C@@H]5O | – | – | – | – | – | > 100 µM | 86 µM | > 100 µM | 76.2 µM | > 100 µM |
| O=C(O)c1cn(C2CC2)c2cc(N3CCNCC3)c(F)cc2c1=O [CIPROFLOXACIN] | 0.25 µg/mL (≈ 0.754 µM) | – | – | 0.5 µg/mL (≈ 1.51 µM) | 0.25 µg/mL (≈ 0.754 µM) | – | – | – | – | – |
| COc1cccc2c1C(=O)c1c(O)c3c(c(O)c1C2=O)C[C@@](O)(C(=O)CO)C[C@@H]3O[C@H]1C[C@H](N)[C@@H](O)[C@H](C)O1 [EPIRUBICIN] | – | – | – | – | – | 0.42 µM | – | – | 0.63 µM | 0.71 µM |
| O=C1C=C[C@]23Oc4ccc(O)c5c4[C@](Oc4cccc1c42)(O3)[C@@H]1O[C@@H]1[C@@H]5O [PREUSSOMERIN D] | – | – | – | – | – | 21 µM | 24 µM | 38 µM | 6.6 µM | 9.8 µM |

Further lines, with some results ahead:

| MIC (Staphylococcus aureus) | MIC (Pseudomonas aeruginosa) | MIC (Escherichia coli) | MIC (Bacillus spizizenii) | MIC (Salmonella enteritidis) | SMILES | IC50 [1] | IC50 at 72 h [2] | IC50 [3] | IC50 [4] | IC50 [5] |
| --- | --- | --- | --- | --- | --- | --- | --- | --- | --- | --- |
| 3.2 µg/mL (≈ 7.19 µM) | > 50 µg/mL | > 50 µg/mL | 25 µg/mL (≈ 56.2 µM) | > 50 µg/mL | CO[C@@H]1[C@H](Cl)C(=O)c2c(O)ccc3c2[C@@]12Oc1cccc4c1[C@](O3)(O2)[C@H](OC)CC4=O | 27 µM | 11 µM | 7.7 µM | 8.9 µM | 6.2 µM |
| 50 µg/mL (≈ 131 µM) | > 50 µg/mL | > 50 µg/mL | 25 µg/mL (≈ 65.7 µM) | > 50 µg/mL | O=C1C[C@@H](O)[C@]23Oc4ccc(O)c5c4[C@](Oc4cccc1c42)(O3)[C@@H]1O[C@@H]1C5=O | 15 µM | 9.4 µM | 3.8 µM | 5.4 µM | 2.5 µM |
| 6.2 µg/mL (≈ 14.4 µM) | > 50 µg/mL | > 50 µg/mL | 50 µg/mL (≈ 116 µM) | > 50 µg/mL | CO[C@@H]1CC(=O)c2cccc3c2[C@@]12Oc1ccc(O)c4c1[C@](O3)(O2)[C@H](O)[C@H](Cl)C4=O | 19 µM | 4.8 µM | 13 µM | 8.5 µM | 5.9 µM |
| 13 µg/mL (≈ 35.7 µM) | > 50 µg/mL | > 50 µg/mL | 25 µg/mL (≈ 68.6 µM) | > 50 µg/mL | O=C1c2c(O)ccc3c2[C@@]2(Oc4cccc5c4[C@](C=C[C@@H]5O)(O3)O2)[C@@H]2O[C@H]12 | 18 µM | 6.9 µM | 3.6 µM | 7.7 µM | 3.1 µM |
| > 50 µg/mL | > 50 µg/mL | > 50 µg/mL | > 50 µg/mL | > 50 µg/mL | CO[C@@H]1CC(=O)c2cccc3c2[C@@]12Oc1ccc(O)c4c1[C@](O3)(O2)[C@@H]1O[C@@H]1[C@@H]4O [PREUSSOMERIN C] | > 100 µM | > 100 µM | > 100 µM | > 100 µM | > 100 µM |

— ChEMBL document CHEMBL3867449, “Cytotoxic and Antibacterial Preussomerins from the Mangrove Endophytic Fungus Lasiodiplodia theobromae ZJ-HQ1” (J Nat Prod, 2016)
